Measured values: ChEMBL document CHEMBL1649509, “Lon protease is essential for paradoxical survival of Escherichia coli exposed to high concentrations of quinolone” (Antimicrob Agents Chemother, 2009)
The source made the active and inactive calls. The calls are words filed in the database; no cut-off is given here.

How the values were obtained:
Assay type in all cases: functional, organism-based
Escherichia coli [1] = assay: Antibacterial activity against lon-deficient Escherichia coli KD2372 by viscometric assay
Escherichia coli [2] = assay: Antibacterial activity against Escherichia coli K-12 harboring lon sulA double mutant gene
Escherichia coli [3] = assay: Antibacterial activity against Escherichia coli K-12 by viscometric assay
Escherichia coli [4] = assay: Antibacterial activity against lon-deficient Escherichia coli KD2372
Escherichia coli [5] = assay: Antibacterial activity against Escherichia coli K-12 harboring gyrA67/gyrB225 mutant gene
Escherichia coli [6] = assay: Antibacterial activity against Escherichia coli K-12 harboring lon lexA3 mutant gene

`CCn1cc(C(=O)O)c(=O)c2ccc(C)nc21` was tested, and the Activity (Escherichia coli [1]) was “Active”, the Activity (Escherichia coli [2]) was “Active” and the Activity (Escherichia coli [3]) was “inactive”. The Activity (Escherichia coli [4]) was “Active”, the Activity (Escherichia coli [5]) was “Active” and the Activity (Escherichia coli [6]) was “Active”.
